The record followed here is patent US20230159619A1, “COMPOSITIONS AND METHODS FOR REGULATING IMMUNE SYSTEM ACTIVITY” (Olema Pharmaceuticals, Inc., priority 2017, published 2023).

Assay [1] concerns the target T1, endoxifen-responsive dominant negative Zap70 polypeptide including an ER(T2) domain having a G400V mutation (Homo sapiens, UniProt P03372, G400V/L544A/M543A).
T1 construct: expressed in transfected cells; host or cells: Jurkat E6.1 cells, transient transfection
T1 sequence (P03372 with tags, fused parts or gaps G400V/M543A/L544A): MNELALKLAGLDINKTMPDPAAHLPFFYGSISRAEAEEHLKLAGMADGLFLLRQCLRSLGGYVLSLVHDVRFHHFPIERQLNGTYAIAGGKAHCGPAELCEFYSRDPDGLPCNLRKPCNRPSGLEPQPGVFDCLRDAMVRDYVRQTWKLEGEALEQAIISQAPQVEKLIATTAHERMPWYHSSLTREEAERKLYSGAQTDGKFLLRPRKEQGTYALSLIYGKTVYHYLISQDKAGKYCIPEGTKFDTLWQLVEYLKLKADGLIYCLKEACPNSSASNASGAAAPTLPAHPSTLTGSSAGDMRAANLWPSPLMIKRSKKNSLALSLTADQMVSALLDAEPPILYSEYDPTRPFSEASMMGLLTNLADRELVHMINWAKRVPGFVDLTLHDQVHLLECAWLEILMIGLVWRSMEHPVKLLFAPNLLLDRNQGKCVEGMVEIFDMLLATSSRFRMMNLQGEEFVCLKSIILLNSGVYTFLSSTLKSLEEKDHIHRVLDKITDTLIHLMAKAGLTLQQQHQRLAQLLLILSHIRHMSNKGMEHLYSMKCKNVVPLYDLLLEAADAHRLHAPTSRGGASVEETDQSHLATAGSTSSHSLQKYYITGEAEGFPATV
The experiment in a line: Endoxifen pIC50 in NFAT-Luciferase reporter assay, G400V construct (Example 8). The class given is cell-based. As to conditions: Jurkat E6.1 cells, 10 ng G400V construct, 1:30 Immunocult CD3/CD28/CD2, 19 hours. On the procedure:
(§1) To examine how effective endoxifen is at relieving the inhibition or masking of a dominant negative signaling moiety of a trigger-responsive dominant negative signaling polypeptide by an ER(T2) domain including either a G400V or a G400L mutation, Jurkat E6.1 cells were transiently transfected with 90 ng NFAT-Luciferase reporter construct and 10 ng of a G400V or G400L construct. The transfected cells were stimulated the addition of 1:30 Immunocult CD3/CD28/CD2 tetrameric antibody mixture, and treated with or without endoxifen for 19 hours before assaying for luciferase activity. Results were normalized to maximum TCR stimulation with Immunocult alone, with 0% representing the activity of unstimulated transfected cells. Points represent mean activity from sextuplicate wells with error bars representing SEM. pIC50's were calculated using a variable slope sigmoidal dose-response model using GraphPad Prism.
(A reporter such as luciferase makes a cellular process visible.)

The target in assay [2] is T2, endoxifen-responsive dominant negative Zap70 polypeptide including an ER(T2) domain having a G400L mutation (Homo sapiens, UniProt P03372, G400L/L544A/M543A).
T2 construct: expressed in transfected cells; host or cells: Jurkat E6.1 cells, transient transfection
T2 sequence (P03372 with tags, fused parts or gaps G400L/M543A/L544A): T1 sequence (P03372 with tags, fused parts or gaps G400V/M543A/L544A) with V415L
The experiment in a line: Endoxifen pIC50 in NFAT-Luciferase reporter assay, G400L construct (Example 8). The class given is cell-based. The conditions noted are these: Jurkat E6.1 cells, 10 ng G400L construct, 1:30 Immunocult CD3/CD28/CD2, 19 hours. The procedure:
as §1

Assay [3] concerns IL2-Luciferase reporter. The experiment in a line: IL2-Luciferase reporter assay with SHP1(210-595) constructs (Example 12). Format: cell-based, human. As to conditions: Jurkat E6.1 cells, α-CD3 and α-CD28, with or without endoxifen, compared to empty vector controls. On the procedure:
To provide a means for assessing T cell activity, a construct containing a reporter gene, such as firefly luciferase (Luc), under the control of an IL2 response element can be used. In the present Example, Jurkat E6.1 cells were transiently transfected with an IL2-Luciferase reporter construct, as well as one of (a) empty vector; (b) an expression construct encoding SHP1(210-595); and (c) an expression construct encoding SHP1(210-595)-ER(T12). Transient transfections were performed using LTX and PLUS transfection reagent (ThermoFisher Scientific) according to manufacturer's protocols.
Transfected cells were treated in the absence or presence of 1:30 dilution of Immunocult CD3/CD28 tetrameric antibody mixture (StemCell Technologies, Canada), which stimulated T-cell activity. Stimulated cells were then further treated with RPMI 1640 media plus 4.8% FBS stripped with charcoal dextran (ThermoFisher Scientific), without Z-endoxifen or with 50 nM Z-endoxifen (Axon-Medchem). Luciferase activity (luminescence) was measured and reported as percent induction of IL2-Luciferase.

For assay [4], the system named is NFAT-Luciferase reporter. In words: NFAT-Luciferase reporter assay with SHP1(210-595) constructs, endoxifen dose response (FIG. 31). The class given is cell-based, human. As to conditions: Jurkat E6.1 cells, 1:40 Immunocult CD3/CD28, varying amounts of Z-endoxifen. The text has this: (§2) Reporter constructs included firefly luciferase (Luc) under the control of an NFAT response element and firefly luciferase (Luc) under the control of an IL2 response element. Data presented in the first panel is from Jurkat E6.1 cells transiently transfected with an NFAT-Luciferase reporter construct, as well as one of (a) empty vector; (b) an expression construct encoding SHP1(210-595); and (c) an expression construct encoding SHP1(210-595)-ER(T12). Data presented in the second panel is from Jurkat E6.1 cells transiently transfected with an IL2-Luciferase reporter construct, as well as one of (a) empty vector; (b) an expression construct encoding SHP1(210-595); and (c) an expression construct encoding SHP1(210-595)-ER(T12). Transient transfections were performed using LTX and PLUS transfection reagent (ThermoFisher Scientific) according to manufacturer's protocols. Transfected cells were treated in the presence of 1:40 dilution of Immunocult CD3/CD28 tetrameric antibody mixture (StemCell Technologies, Canada), which stimulated T-cell activity. Stimulated cells were then further treated with RPMI 1640 media plus 4.8% FBS stripped with charcoal dextran (ThermoFisher Scientific), with varying amounts of Z-endoxifen (Axon-Medchem) as indicated in FIG. 31. Luciferase activity (luminescence) was measured and reported as percent induction of IL2-Luciferase.

For assay [5], the system named is IL2-Luciferase reporter. In words: IL2-Luciferase reporter assay with SHP1(210-595) constructs, endoxifen dose response (FIG. 31). The conditions noted are these: Jurkat E6.1 cells, 1:40 Immunocult CD3/CD28, varying amounts of Z-endoxifen. Format: cell-based, human.
From the text: as §2

Where a chain is given by its changes, count along the chain named.

What is called IC50 is the concentration needed to halve the response being measured. A low value points to inhibition by little substance. On to `CC/C(=C(\c1ccc(O)cc1)c1ccc(OCCNC)cc1)c1ccccc1` [endoxifen], for which the figures for the IC50 in assay [1] and in assay [2] were 6.31 nM and 1.58 nM, respectively.

On to “SHP1(210-595): constitutively active SHP1 phosphatase signaling moiety, SEQ ID NO: 23”, for which the “luciferase reporter expression (percent induction of IL2-Luciferase)” value in assay [3] is given as “substantially reduced expression of luciferase reporter”. The “inhibition of NFAT-Luciferase reporter expression” value in assay [4] is recorded as “endoxifen-independent manner”. Also, in assay [5], the “inhibition of IL2-Luciferase reporter expression” value is “endoxifen-independent manner”.
